Results published in patent US11117899B2, “[1,2,4]triazolo[1,5-c]pyrimidine derivative as A2A receptor inhibitor” (MEDSHINE DISCOVERY INC., priority 2017, dated 2021).
Converted amounts (≈) assume the structure as drawn.

Experiments:
[1] = Determination of kinetic solubility; assay type: physicochemical; conditions: aqueous buffer, kinetic from dmso stock, 50 mM phosphate buffer pH 7.4, 24 hours, room temperature, 200 μM maximum
Experimental: The test compounds were dissolved in DMSO to prepare 10 mmol/L stock solutions. The stock solutions were diluted with 50% ACN/50 mM phosphate buffer (pH 7.4) to prepare standard solutions (1 μM, 20 μM, […]).
490 μL of dissolution medium (50 mM phosphate buffer solution, pH 7.4) was pipetted into a 96-well plate with a single-well volume of 2 mL using a pipette (Eppendorf Research Inc.). 10 μL of the stock solution of each test compounds and QC sample (10 mmol/L DMSO stock solution) were added to the dissolution medium, respectively, and the sample plate was sealed with a sealing film. The final concentration of the test compounds and DMSO in the sample solution were 200 μM and 2%, respectively. The mixture was shaken at 600 rpm for 24 hours at room temperature. 200 μL of the sample solution was transferred into a 96-well filter plate using a pipette and filtered with suction. The filtrate and the standard solution were detected by high performance liquid chromatography (HPLC-DAD). The concentration of the test compounds in the filtrate was calculated by an external standard method, which was the kinetic solubility of the compounds.

[2] = Pharmacokinetics in female Balb/c mice; assay type: in vivo; conditions: mouse, plasma, single intravenous injection / single oral administration; for bioavailability: read-out: Bioavailability F; for AUC: read-out: Concentration integral AUC; for half-life: read-out: Half-life T1/2 (converted)
Experimental: Objective: To test the pharmacokinetics of compounds in female Balb/c mice in vivo
Balb/c mice (female, 15-30 g, 7-9 weeks old, Shanghai Lingchang)
The pharmacokinetics profile of the compounds in rodent after intravenous injection and oral administrations was tested using a standard protocol. In the assay, the candidate compound was formulated into a clear solution and administrated to the mice through a single intravenous injection, and formulated into a uniform suspension and administrated to the mice through a single oral administration. […] The whole blood samples were collected within 24 hours, centrifuged at 3000 g at 4° C. for 15 minutes, and plasma samples were obtained by separating the supernatant. 20 times volume of acetonitrile solution containing an internal standard was added to precipitate proteins. After centrifugation, the supernatant was collected, to which an equal volume of water was added, and further centrifuged to collect the supernatant. The LC-MS/MS method was used to quantitatively analyze the plasma concentration, and the pharmacokinetics parameters, such as peak concentration, peak time, clearance rate, half-life, area under the curve, and bioavailability were calculated.

[3] = biological target: T1, Human adenosine A2A receptor (Homo sapiens, UniProt P29274); test: Human adenosine A2A receptor calcium flux assay; assay type: cell-based; conditions: A2A stable CHO cell strain, antagonist mode against agonist NECA at EC80, FLIPR Fluo-4
T1 construct: host or cells: CHO
T1 sequence (P29274 whole entry): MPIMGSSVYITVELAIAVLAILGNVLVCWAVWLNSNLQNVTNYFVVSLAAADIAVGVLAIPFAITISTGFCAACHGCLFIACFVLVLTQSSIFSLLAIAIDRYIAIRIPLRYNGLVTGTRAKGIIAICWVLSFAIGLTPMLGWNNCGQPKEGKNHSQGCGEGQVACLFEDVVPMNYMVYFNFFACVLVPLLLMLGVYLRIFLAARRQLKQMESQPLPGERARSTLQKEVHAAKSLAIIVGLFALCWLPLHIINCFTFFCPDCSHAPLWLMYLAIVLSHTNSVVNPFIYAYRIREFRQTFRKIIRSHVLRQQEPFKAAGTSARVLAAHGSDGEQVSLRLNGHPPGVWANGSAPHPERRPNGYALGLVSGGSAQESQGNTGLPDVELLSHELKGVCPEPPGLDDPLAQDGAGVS
Experimental: Human adenosine A2A receptor calcium flux assay
A2A stable cell strain was constructed by Shanghai WuXi PharmaTech, and the host cell was CHO.
Fluo-4 Direct Kit (Invitrogen, Cat. No. F10471). After the fluorescent detection reagent (specifically binding to calcium ions and causing an increase in fluorescence signal) in the kit was incubated with the cells for a suitable period of time, the compound was added to stimulate the cells to cause changes in intracellular calcium flux, thereby causing changes in the fluorescent signal, which can reflect the strength of the agonistic or inhibitory activity of the compound.
F12+10% fetal bovine serum+geneticin 300 ug/ml+blasticidin 2 ug/ml Compound dilution buffer:
Hanks Balanced Salt Buffer (Invitrogen)+20 mM HEPES, configured before each use
The test compounds were dissolved in DMSO to prepare 10 mM stock solutions. The test compounds were diluted to 0.2 mM with DMSO, and the reference compound CGS-15943 was diluted to 0.015 mM with DMSO. Next, 10 points of three-fold serial dilutions were made with ECHO. 900 nl was transferred to the compound plate (Greiner-781280), and 30 ul of compound dilution buffer was added. The final starting concentration of the test compounds was 1 uM and CGS-15943 was 0.075 uM.
Cryopreserved A2A cells were resuscitated, and then resuspended in culture medium to 1×10^6 cells/ml. The suspension was seeded into 384-well polylysine-coated cell plates (Greiner-781946) at 20 μl/well and incubated overnight in a 5% CO2 incubator at 37° C.
The cell plate prepared the day before was taken out from the incubator, and 20 ul of 2× Fluo-4 Direct™ buffer was added to each well. The plate was incubated for 50 minutes in a 5% CO2 incubator at 37° C. and allowed to stand at room temperature for 10 minutes.
Dilution of agonist NECA: 10 points of three-fold serial dilutions were made with Echo for NECA from a starting concentration of 0.15 mM. 900 nL was then transferred to the corresponding compound plate; and then 30 μl of compound dilution buffer was added to the corresponding compound plate. The final starting concentration was 750 nM.
FLIPR instrument software was run. According to the programmed procedure, 10 ul of compound dilution buffer was added to the cell plate and the fluorescence signal was read. 10 ul of the agonist reference compound at the indicated concentration was then added to the cell plate and the fluorescent signal was read. After reading, the data was exported by the “Max-Min”, “Read 90 to Maximum allowed” method in the software, and the EC80 of the A2A cell line was calculated. The agonist was prepared at a concentration of 6× EC80. A 6× EC80 concentration of a reference compound agonist of the corresponding cells was prepared with a buffer solution, and added at 30 ul/well to the corresponding compound plate for use.
FLIPR instrument software was run. According to the programmed procedure, 10 μl of the test compounds and reference compound at an indicated concentration was added to the cell plate and the fluorescence signal was read. 10 ul of the reference compound agonist at a concentration of 6× EC80 was then added to the cell plate and the fluorescent signal was read. For the agonist detection of the compounds, the data was exported by the “Max-Min”, “Read 1 to 90” method in the software. For the antagonist detection of the compound, the data was exported by the “Max-Min”, “Read 90 to Maximum allowed” method in the software. Data were analyzed by GraphPad Prism 5.0 and the IC50 values of the test compounds were calculated.

Row | solubility at 24 h [1] | clearance [2] | bioavailability [2] | AUC [2] | half-life [2] | IC50 [3] | Structure (SMILES)
1 | 29.2 µM (≈ 9.67 µg/mL) | 12.5 L/h/kg | 21.6% | 0.501 µM·h | 0.28 h | – | Cc1cc(-c2nnc(N)nc2-c2ccccc2)cc(C(F)(F)F)n1 [Compound A, reference compound]
2 | 185 µM (≈ 68.5 µg/mL) | 3.07 L/h/kg | 41.1% | 3.33 µM·h | 0.47 h | 0.23 nM | Cc1cc(-c2c(-c3ccccc3)nc(N)n3ncnc23)cc(C(F)(F)F)n1 [Example A-1]
3 | 92.5 µM (≈ 37.6 µg/mL) | – | – | – | – | 0.32 nM | Cc1cc(-c2c(-c3cccc(F)c3F)nc(N)n3ncnc23)cc(C(F)(F)F)n1 [Example A-3]
4 | 160 µM (≈ 64.1 µg/mL) | – | – | – | – | 1.08 nM | COc1ccccc1-c1nc(N)n2ncnc2c1-c1cc(C)nc(C(F)(F)F)c1 [Example A-4]
5 | 197 µM (≈ 62.3 µg/mL) | 1.44 L/h/kg | 91% | 19.6 µM·h | 0.33 h | 0.28 nM | Cc1cc(-c2c(-c3ccccc3)nc(N)n3ncnc23)cc(C)n1 [Example B-5]
6 | 54.5 µM (≈ 21.3 µg/mL) | – | – | – | – | 1.55 nM | Nc1nc(-c2ccccc2)c(-c2cc(Cl)nc(C(F)(F)F)c2)c2ncnn12 [Example B-28]
7 | 56 µM (≈ 18.9 µg/mL) | 2.66 L/h/kg | 17.4% | 1.73 µM·h | 0.25 h | 0.28 nM | Cc1cc(-c2c(-c3ccccc3)nc(N)n3ncnc23)cc(Cl)n1 [Example B-31]
8 | – | 0.526 L/h/kg | 50.4% | 24.9 µM·h | 2 h | 2.97 nM | Cc1cc(-c2c(-c3ccccc3)nc(N)n3nc(C(F)(F)F)nc23)cc(C)n1 [Example C-2]
9 | 194 µM (≈ 67.2 µg/mL) | 2.32 L/h/kg | 70.7% | 8.79 µM·h | 0.92 h | 0.4 nM | Cc1cc(-c2c(-c3ccccc3)nc(N)n3nc(CO)nc23)cc(C)n1 [Example C-19]
10 | > 200 µM | 1.08 L/h/kg | 95.2% | 22 µM·h | 1.2 h | 0.65 nM | Cc1cc(-c2c(-c3ccccc3)nc(N)n3nc(CO)nc23)cc(C(F)(F)F)n1 [Example C-33]
11 | – | 0.332 L/h/kg | 41.2% | 25.1 µM·h | 8.04 h | 4.99 nM | Cc1cc(-c2c(-c3ccc(F)cc3)nc(N)n3nc(C(F)(F)F)nc23)cc(Cl)n1 [Example C-41]
12 | 168 µM (≈ 70.3 µg/mL) | 0.451 L/h/kg | 82.9% | 43.9 µM·h | 1.99 h | 1.36 nM | Cc1cc(-c2c(-c3ccc(F)cc3)nc(N)n3nc(CO)nc23)cc(C(F)(F)F)n1 [Example C-43]
13 | 172 µM (≈ 69.2 µg/mL) | 0.0324 L/h/kg | 44% | 20.1 µM·h | 1.92 h | 3.08 nM | Cc1cc(-c2c(-c3ccc(F)cc3)nc(N)n3nc(C)nc23)cc(C(F)(F)F)n1 [Example C-46]
14 | – | 0.236 L/h/kg | 69.3% | 71.7 µM·h | 3.2 h | 4.49 nM | Cc1cc(-c2c(-c3ccc(F)cc3)nc(N)n3nc(C(F)(F)F)nc23)cc(C)n1 [Example C-57]
15 | 78.9 µM (≈ 34.6 µg/mL) | 0.15 L/h/kg | 123% | 157 µM·h | 7.26 h | 1.72 nM | Nc1nc(-c2ccc(F)cc2)c(-c2cc(Cl)nc(C(F)(F)F)c2)c2nc(CO)nn12 [Example C-58]
